Laboratory results from US20230414771A1, “PREPARATION AND USE OF IMMUNOSTIMULATORY CONJUGATED COMPLEXES FOR TARGETED DELIVERY AND ACTIVATION” (YAFEI SHANGHAI BIOLOGY MEDICINE SCIENCE & TECHNOLOGY CO., …, priority 2020, published 2023).
*1 amine or outer side, *2 acyl side, *3 side chain or, on linkers, in order; H or OH if unused. Where a SMILES comes first, the peptide text is derived from it. [ ]: non-standard residue; d: D form. The star is where a group is joined. ξ: configuration not given here. Doxorubicin(3'-N) = COc1cccc2c1C(=O)c1c(O)c3c(c(O)c1C2=O)C[C@@](O)(C(=O)CO)C[C@@H]3O[C@H]1C[C@H](N*)[C@H](O)[C@H](C)O1; Thyronine(3,5,3'-I3) = N[C@@H](Cc1cc(I)c(Oc2ccc(O)c(I)c2)c(I)c1)C(=O)O; Mal(CH2CH2O)6CH2CH2CO = O=C1C=CC(=O)N1CCOCCOCCOCCOCCOCCOCCC(=O)*; X9 = O=C([C@@H](Cc1cc(I)c(Oc2ccc(O)c(I)c2)c(I)c1)N[*:1])[*:2]; MaleimidoPEG4propanoyl = O=C1C=CC(=O)N1CCOCCOCCOCCOCCC(=O)*; Hexanoyl(6-maleimido) = O=C1C=CC(=O)N1CCCCCC(=O)*; Propanoyl(3-maleimido) = O=C1C=CC(=O)N1CCC(=O)*; X1 = O=C1C=CC(=O)N1CCOCCOCCOCCC(=O)*; PEG6 = NCCOCCOCCOCCOCCOCCOCCC(=O)O; X3 = O=C1C=CC(=O)N1CCOCCOCCC(=O)*; PEG4 = NCCOCCOCCOCCOCCC(=O)O; ξN = NC(=O)CC(N)C(=O)O

System: not listed separately
Assay: Water solubility test (observation and HPLC)
Assay type: physicochemical
Settings: thermodynamic from solid
Procedure: The compounds prepared in accordance with the examples of the disclosure and the reference compounds C1, C2, C3 and C4 were lyophilized (−70° C.).

Which solubility does the source give for `COc1cccc2c1C(=O)c1c(O)c3c(c(O)c1C2=O)C[C@@](O)(C(=O)CO)C[C@@H]3O[C@H]1C[C@H](NC(=O)[C@H](CC(C)C)NC(=O)[C@H](CC(N)=O)NC(=O)[C@H](C)NC(=O)[C@H](C)NC(=O)[C@@H](NC(=O)CCCCCN2C(=O)C=CC2=O)C(C)C)[C@H](O)[C@H](C)O1` [QHL-123-DOX] ({Hexanoyl(6-maleimido)}-VAANL-{Doxorubicin(3'-N)}) here?
The solubility was > 2000 µg/mL.

Which solubility does the source give for `CCOCc1nc2c(NC(=O)OCc3ccc(NC(=O)[C@H](CC(N)=O)NC(=O)[C@H](C)NC(=O)[C@H](C)NC(=O)CCCCCN4C(=O)C=CC4=O)cc3)nc3ccccc3c2n1CC(C)(C)O` [QHL-140-Resiquimod] here?
Its solubility is > 10000 µg/mL.

With `CCOCc1nc2c(NC(=O)OCc3ccc(NC(=O)[C@H](CC(N)=O)NC(=O)[C@H](C)NC(=O)[C@H](C)NC(=O)CCOCCOCCOCCOCCOCCOCCOCCOCCOCCOCCOCCOCCN4C(=O)C=CC4=O)cc3)nc3ccccc3c2n1CC(C)(C)O` [QHL-147-Resiquimod] as the compound, how does the solubility read?
The solubility was > 10000 µg/mL.

For `C[C@H](NC(=O)CCOCCOCCN1C(=O)C=CC1=O)C(=O)N[C@@H](C)C(=O)N[C@H](CC(N)=O)C(=O)N[C@@H](Cc1cc(I)c(Oc2ccc(O)c(I)c2)c(I)c1)C(=O)O` [QHL-153-T3] (X3-AA[dN][Thyronine(3,5,3'-I3)]-OH), which solubility is on record?
Its solubility is > 10000 µg/mL.

For `C[C@H](NC(=O)CCOCCOCCOCCN1C(=O)C=CC1=O)C(=O)N[C@@H](C)C(=O)N[C@H](CC(N)=O)C(=O)N[C@@H](Cc1cc(I)c(Oc2ccc(O)c(I)c2)c(I)c1)C(=O)O` [QHL-154-T3] (X1-AA[dN][Thyronine(3,5,3'-I3)]-OH), which solubility is on record?
Its solubility is > 10000 µg/mL.

For `C[C@H](NC(=O)CCOCCOCCOCCOCCOCCOCCN1C(=O)C=CC1=O)C(=O)N[C@@H](C)C(=O)N[C@H](CC(N)=O)C(=O)N[C@@H](Cc1cc(I)c(Oc2ccc(O)c(I)c2)c(I)c1)C(=O)O` [QHL-155-T3] ({Mal(CH2CH2O)6CH2CH2CO}-AA[dN][Thyronine(3,5,3'-I3)]-OH), which solubility is on record?
The solubility was > 10000 µg/mL.

For `C[C@H](NC(=O)[C@H](C)NC(=O)[C@@H](CCC(=O)O)NC(=O)CCCCCN1C(=O)C=CC1=O)C(=O)N[C@@H](CC(N)=O)C(=O)N[C@H](Cc1cc(I)c(Oc2ccc(O)c(I)c2)c(I)c1)C(=O)O` [QHL-161-T3] ({Hexanoyl(6-maleimido)}-[dE]AAN[X9]-OH), which solubility is on record?
Its solubility is > 10000 µg/mL.

With `C[C@H](NC(=O)[C@H](C)NC(=O)[C@@H](CC(=O)O)NC(=O)CCCCCN1C(=O)C=CC1=O)C(=O)NC(CC(N)=O)C(=O)N[C@H](Cc1cc(I)c(Oc2ccc(O)c(I)c2)c(I)c1)C(=O)O` (some centres unmarked) [QHL-162-T3] ({Hexanoyl(6-maleimido)}-[dD]AA[ξN][X9]-OH) as the compound, how does the solubility read?
Its solubility is > 10000 µg/mL.

System: Human hepatoma HepG2 cells
Assay: Human liver cancer HepG2 tumors in nude mice
Assay type: in vivo
Settings: 54 umol/kg IV once a week for 4 weeks
Procedure: • 1. Animals: nude mice aged 6-8 weeks, all female. • 2. Preparation of tumor models
Human hepatoma HepG2 cells were purchased from ATCC and identified according to the instructions provided. […] Randomization was performed when the tumor size reached 100 mm^3.
Treatment was then initiated, and the day of initiation of treatment was counted as Day 1. • 3) Treatment process
According to the clinical application of the corresponding compound, the drug was administered intravenously (IV). The compound and the control drug were administered at a dose of 54 umol/kg, and DOX could only be administered at a dose of 18 umol/kg due to toxicity limitations.

For `COc1cccc2c1C(=O)c1c(O)c3c(c(O)c1C2=O)C[C@@](O)(C(=O)CO)C[C@@H]3O[C@H]1C[C@H](NC(=O)[C@H](CC(C)C)NC(=O)[C@H](CC(N)=O)NC(=O)[C@H](C)NC(=O)[C@H](C)NC(=O)CCOCCOCCN2C(=O)C=CC2=O)[C@H](O)[C@H](C)O1` [QHL-009-DOX] (X3-AANL-{Doxorubicin(3'-N)}), which “Tumor volume (mm^3) Day 28” value is on record?
The value was 0 mm^3.

Which “Tumor volume (mm^3) Day 28” value does the source give for `COc1cccc2c1C(=O)c1c(O)c3c(c(O)c1C2=O)C[C@@](O)(C(=O)CO)C[C@@H]3O[C@H]1C[C@H](NC(=O)[C@H](CC(C)C)NC(=O)[C@H](CC(N)=O)NC(=O)[C@H](C)NC(=O)[C@H](C)NC(=O)CCOCCOCCOCCOCCN2C(=O)C=CC2=O)[C@H](O)[C@H](C)O1` [QHL-011-DOX] (MaleimidoPEG4propanoyl-AANL-{Doxorubicin(3'-N)}) here?
The value was 98.1 ± 48.4 mm^3.

Which “Tumor volume (mm^3) Day 28” value does the source give for `COc1cccc2c1C(=O)c1c(O)c3c(c(O)c1C2=O)C[C@@](O)(C(=O)CO)C[C@@H]3O[C@H]1C[C@H](NC(=O)[C@H](CC(C)C)NC(=O)[C@H](CC(N)=O)NC(=O)[C@H](C)NC(=O)[C@H](C)NC(=O)CCOCCOCCOCCOCCOCCOCCN2C(=O)C=CC2=O)[C@H](O)[C@H](C)O1` [QHL-012-DOX] ({Mal(CH2CH2O)6CH2CH2CO}-AANL-{Doxorubicin(3'-N)}) here?
The value was 197.4 ± 104.5 mm^3.

Same assay, conditions: Mus musculus, HepG2, iv, 672 h, read-out: Tumor inhibition rate (%) Day 28

For `COc1cccc2c1C(=O)c1c(O)c3c(c(O)c1C2=O)C[C@@](O)(C(=O)CO)C[C@@H]3O[C@H]1C[C@H](NC(=O)[C@H](CC(C)C)NC(=O)[C@H](CC(N)=O)NC(=O)[C@H](C)NC(=O)[C@H](C)NC(=O)CCOCCOCCN2C(=O)C=CC2=O)[C@H](O)[C@H](C)O1` [QHL-009-DOX] (X3-AANL-{Doxorubicin(3'-N)}), which inhibition in vivo at 54 µmol/kg is on record?
Its inhibition in vivo at 54 µmol/kg is 100%.

With `COc1cccc2c1C(=O)c1c(O)c3c(c(O)c1C2=O)C[C@@](O)(C(=O)CO)C[C@@H]3O[C@H]1C[C@H](NC(=O)[C@H](CC(C)C)NC(=O)[C@H](CC(N)=O)NC(=O)[C@H](C)NC(=O)[C@H](C)NC(=O)CCOCCOCCOCCOCCN2C(=O)C=CC2=O)[C@H](O)[C@H](C)O1` [QHL-011-DOX] (MaleimidoPEG4propanoyl-AANL-{Doxorubicin(3'-N)}) as the compound, how does the inhibition in vivo at 54 µmol/kg read?
Its inhibition in vivo at 54 µmol/kg is 96.6%.

Which inhibition in vivo at 54 µmol/kg does the source give for `COc1cccc2c1C(=O)c1c(O)c3c(c(O)c1C2=O)C[C@@](O)(C(=O)CO)C[C@@H]3O[C@H]1C[C@H](NC(=O)[C@H](CC(C)C)NC(=O)[C@H](CC(N)=O)NC(=O)[C@H](C)NC(=O)[C@H](C)NC(=O)CCOCCOCCOCCOCCOCCOCCN2C(=O)C=CC2=O)[C@H](O)[C@H](C)O1` [QHL-012-DOX] ({Mal(CH2CH2O)6CH2CH2CO}-AANL-{Doxorubicin(3'-N)}) here?
Its inhibition in vivo at 54 µmol/kg is 93.2%.

For `COc1cccc2c1C(=O)c1c(O)c3c(c(O)c1C2=O)C[C@@](O)(C(=O)CO)C[C@@H]3O[C@H]1C[C@H](NC(=O)[C@H](CC(C)C)NC(=O)[C@H](CC(N)=O)NC(=O)[C@H](C)NC(=O)[C@H](C)NC(=O)CCOCCOCCOCCNC(=O)CCN2C(=O)C=CC2=O)[C@H](O)[C@H](C)O1` [QHL-090-DOX], which inhibition in vivo at 54 µmol/kg is on record?
Its inhibition in vivo at 54 µmol/kg is 100%.

With `COc1cccc2c1C(=O)c1c(O)c3c(c(O)c1C2=O)C[C@@](O)(C(=O)CO)C[C@@H]3O[C@H]1C[C@H](NC(=O)[C@H](CC(C)C)NC(=O)[C@H](CC(N)=O)NC(=O)[C@H](C)NC(=O)[C@H](C)NC(=O)CCOCCOCCOCCOCCNC(=O)CCN2C(=O)C=CC2=O)[C@H](O)[C@H](C)O1` [QHL-093-DOX] ({Propanoyl(3-maleimido)-PEG4}-AANL-{Doxorubicin(3'-N)}) as the compound, how does the inhibition in vivo at 54 µmol/kg read?
Its inhibition in vivo at 54 µmol/kg is 94.2%.

For `COc1cccc2c1C(=O)c1c(O)c3c(c(O)c1C2=O)C[C@@](O)(C(=O)CO)C[C@@H]3O[C@H]1C[C@H](NC(=O)[C@H](CC(C)C)NC(=O)[C@H](CC(N)=O)NC(=O)[C@H](C)NC(=O)[C@H](C)NC(=O)CCOCCOCCOCCOCCOCCOCCNC(=O)CCN2C(=O)C=CC2=O)[C@H](O)[C@H](C)O1` [QHL-096-DOX] ({Propanoyl(3-maleimido)-PEG6}-AANL-{Doxorubicin(3'-N)}), which inhibition in vivo at 54 µmol/kg is on record?
The inhibition in vivo at 54 µmol/kg was 100%.
